Where two headings read alike, the source gives them in different places.

Data on 27 compounds can be found in patent US9062078B2, “Substituted 7-azabicyles and their use as orexin receptor modulators” (priority 2013, dated 2015).

In assay [1] the target is rat orexin 1 receptor (Rattus norvegicus, UniProt P56718). Kind of assay: Rat orexin 1 receptor radioligand binding (competitive, [3H]-SB674042, HEK293 cell preparations).
The target of assay [2] is human orexin 2 receptor (Homo sapiens (Human), UniProt O43614). Kind of assay: Human orexin 2 receptor radioligand binding (competitive, [3H]-EMPA, HEK293 cell preparations).
Where [3] appears, read: rat orexin 1 receptor, [3H]-SB674042 competition binding, read-out: rOX1 Ki (nm).
The mark [4] stands for this setting: human orexin 2 receptor, [3H]-EMPA competition binding, read-out: hOX2 Ki (nm).

human orexin 2 receptor, sequence (O43614 whole entry): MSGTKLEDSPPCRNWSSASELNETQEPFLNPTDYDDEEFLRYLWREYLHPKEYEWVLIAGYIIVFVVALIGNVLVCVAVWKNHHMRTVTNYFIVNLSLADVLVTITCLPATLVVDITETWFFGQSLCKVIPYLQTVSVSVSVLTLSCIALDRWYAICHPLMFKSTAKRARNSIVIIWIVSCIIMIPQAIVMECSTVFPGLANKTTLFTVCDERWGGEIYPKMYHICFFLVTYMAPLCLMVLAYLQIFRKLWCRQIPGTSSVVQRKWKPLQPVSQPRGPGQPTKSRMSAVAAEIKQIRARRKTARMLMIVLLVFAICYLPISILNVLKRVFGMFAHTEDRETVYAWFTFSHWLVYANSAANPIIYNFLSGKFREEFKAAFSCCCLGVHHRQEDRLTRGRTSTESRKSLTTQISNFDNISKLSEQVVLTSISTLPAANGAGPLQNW

For the compound `COc1c(F)cccc1C(=O)N1C2CCC1C(Nc1ccc(C(F)(F)F)cn1)C2` (racemic) [Example 193, (±)-((3-fluoro-2-methoxyphenyl)(2-(5-(trifluoromethyl)pyridin-2-yl)amino)-7-azabicyclo[2.2.1]heptan-7-yl)methanone], the figures for the inhibitory constant (Ki) in assay [1] (setting [3]) and in assay [2] (setting [4]) were 2900 nM and > 10000 nM, respectively.
For `Cc1ccc(-c2ncccc2C)c(C(=O)N2C3CCC2C(COc2ncc(F)cn2)C3)n1` (racemic) [Example 98, (±)-(3,6′-dimethyl-[2,3′-bipyridin]-2′-yl)(2-(((5-fluoropyrimidin-2-yl)oxy)methyl)-7-azabicyclo[2.2.1]heptan-7-yl)methanone] the same measures were > 10000 nM and > 10000 nM.
In the case of `O=C(c1cccc(F)c1-c1ncccn1)N1C2CCC1C(COc1ccccn1)C2` (racemic) [Example 52, (±)-(3-fluoro-2-(pyrimidin-2-yl)phenyl)(2-((pyridin-2-yloxy)methyl)-7-azabicyclo[2.2.1]heptan-7-yl)methanone], the Ki (commonly a dissociation constant, usually derived from enzyme kinetics or from competition with a known ligand) in assay [1] (setting [3]) was found to be 350 nM; in assay [2] (hOX2 Ki (nm)) it was 2300 nM.
With `Cc1ccc(-c2ncccn2)c(C(=O)N2C3CCC2C(COc2ncc(F)cn2)C3)n1` (racemic) [Example 175, (±)-(2-(((5-fluoropyrimidin-2-yl)oxy)methyl)-7-azabicyclo[2.2.1]heptan-7-yl)(6-methyl-3-(pyrimidin-2-yl)pyridin-2-yl)methanone], the results for the Ki in assay [1] (rOX1 Ki (nm)) and in assay [2] (setting [4]) were 2500 nM and 4000 nM, respectively.
For the compound `COc1c(F)cccc1C(=O)N1C2CCC1C(Nc1ncc(C(F)(F)F)cn1)C2` (racemic) [Example 226, (±)-(3-fluoro-2-methoxyphenyl)(2-(5-(trifluoromethyl)pyrimidin-2-yl)amino)-7-azabicyclo[2.2.1]heptan-7-yl)methanone], the Ki in assay [1] (rOX1 Ki (nm)) and in assay [2] (setting [4]) was > 10000 nM in each case.
For the compound `Cc1ccc(-c2ncccn2)c(C(=O)N2C3CCC2C(Nc2ncc(C(F)(F)F)cn2)C3)n1` (racemic) [Example 225, (±)-(6-methyl-3-(pyrimidin-2-yl)pyridin-2-yl)(2-(5-(trifluoromethyl)pyrimidin-2-yl)amino)-7-azabicyclo[2.2.1]heptan-7-yl)methanone], the Ki in assay [1] (setting [3]) was 530 nM; in assay [2] (setting [4]), 3300 nM.
For `COc1c(F)cccc1C(=O)N1C2CCC1C(Nc1cnc3ccccc3n1)C2` (single isomer, unassigned) [Example 206, (±)-(3-fluoro-2-methoxyphenyl)(2-(quinoxalin-2-ylamino)-7-azabicyclo[2.2.1]heptan-7-yl)methanone] the same measures were 1200 nM and 1500 nM.
`Cc1ccc(-n2nccn2)c(C(=O)N2C3CCC2C(Nc2cnc4ccccc4n2)C3)n1` (racemic) [Example 230, (±)-(6-methyl-3-(2H-1,2,3-triazol-2-yl)pyridin-2-yl)(2-(quinoxalin-2-ylamino)-7-azabicyclo[2.2.1]heptan-7-yl)methanone]: the Ki in assay [1] (rOX1 Ki (nm)) and in assay [2] (hOX2 Ki (nm)) was > 10000 nM in each case.
On to `Cc1ccn2c(C)cnc2c1C(=O)N1C2CCC1C(COc1ccccn1)C2` (racemic) [Example 79, (±)-((3,7-dimethylimidazo[1,2-a]pyridin-8-yl)(2-((pyridin-2-yloxy)methyl)-7-azabicyclo[2.2.1]heptan-7-yl)methanone], for which the figures for the inhibition constant Ki in assay [1] (setting [3]) and in assay [2] (setting [4]) were 2400 nM and 8500 nM, respectively.
For `COc1ccc(NC2CC3CCC2N3C(=O)c2ccccc2-n2nccn2)nc1` (racemic) [Example 213, (±)-(2-(2H-1,2,3-triazol-2-yl)phenyl)(2-((5-methoxypyridin-2-yl)amino)-7-azabicyclo[2.2.1]heptan-7-yl)methanone] the same measures were 2800 nM and 7500 nM.
For `O=C(c1cccc(F)c1-c1ncccn1)N1[C@@H]2CC[C@H]1[C@H](Nc1nccn3c(C(F)(F)F)nnc13)C2` [Example 274], in that order: > 10000 nM and 2560 nM.
`Cc1cc(C)nc(NC2CC3CCC2N3C(=O)c2ccccc2-n2nccn2)n1` (racemic) [Example 202, (±)-(2-(2H-1,2,3-triazol-2-yl)phenyl)(2-(((4,6-dimethylpyrimidin-2-yl)amino)-7-azabicyclo[2.2.1]heptan-7-yl)methanone]: the values for the Ki in assay [1] (setting [3]) and in assay [2] (hOX2 Ki (nm)) were 760 nM and 444 nM, respectively.
For the compound `Cc1ccc2ncc(C)n2c1C(=O)N1C2CCC1C(COc1ccccn1)C2` (racemic) [Example 76, (±)-(3,6-dimethylimidazo[1,2-a]pyridin-5-yl)(2-((pyridin-2-yloxy)methyl)-7-azabicyclo[2.2.1]heptan-7-yl)methanone], the Ki in assay [1] (setting [3]) and in assay [2] (setting [4]) was > 10000 nM each time.
`COc1ccc(C(=O)N2C3CCC2C(COc2ccc(F)cn2)C3)c(-n2nccn2)c1` (racemic) [Example 119, (±)-(2-(((5-fluoropyridin-2-yl)oxy)methyl)-7-azabicyclo[2.2.1]heptan-7-yl)(4-methoxy-2-(2H-1,2,3-triazol-2-yl)phenyl)methanone]: the results for the Ki in assay [1] (setting [3]) and in assay [2] (setting [4]) were 500 nM and 1300 nM, respectively.
For `Cc1ccc(N(C)C)c(C(=O)N2C3CCC2C(COc2ccccn2)C3)n1` (racemic) [Example 73, (±)-(3-(dimethylamino)-6-methylpyridin-2-yl)(2-((pyridin-2-yloxy)methyl)-7-azabicyclo[2.2.1]heptan-7-yl)methanone], in that order: 278 nM and 7900 nM.
For `CCOc1ncc(-c2ccccc2)cc1C(=O)N1C2CCC1C(COc1ccccn1)C2` (racemic) [Example 160, (±)-(2-ethoxy-5-phenylpyridin-3-yl)(2-((pyridin-2-yloxy)methyl)-7-azabicyclo[2.2.1]heptan-7-yl)methanone], the inhibition constant Ki was 8700 nM in assay [1] (setting [3]) and > 10000 nM in assay [2] (setting [4]).
For `COc1c(F)cccc1C(=O)N1C2CCC1C(Nc1cnc3ccccc3n1)C2` (single isomer, unassigned) [Example 231, (±)-(3-fluoro-2-methoxyphenyl)(2-(quinoxalin-2-ylamino)-7-azabicyclo[2.2.1]heptan-7-yl)methanone] the same measures were > 10000 nM and > 10000 nM.
For `Cc1ccc(C(=O)N2[C@@H]3CC[C@H]2[C@H](Nc2cnc(C(F)(F)F)cn2)C3)c(-n2nccn2)n1` [Example 247, (6-methyl-2-(2H-1,2,3-triazol-2-yl)pyridin-3-yl)((1S,2R,4R)-2-((5-(trifluoromethyl)pyrazin-2-yl)amino)-7-azabicyclo[2.2.1]heptan-7-yl)methanone], in that order: 420 nM and 1130 nM.
For `CCOc1ccc(C)nc1C(=O)N1C2CCC1C(Nc1ccc(Br)cn1)C2` (racemic) [Example 219, (±)-(2-((5-bromopyridin-2-yl)amino)-7-azabicyclo[2.2.1]heptan-7-yl)(3-ethoxy-6-methylpyridin-2-yl)methanone] the same measures were 257 nM and 1700 nM.
Regarding `Cc1ccc(-c2ncccc2C)c(C(=O)N2C3CCC2C(COc2ccc(F)cn2)C3)n1` (racemic) [Example 65, (±)-(3,6′-dimethyl-[2,3′-bipyridin]-2′-yl)(2-(((5-fluoropyridin-2-yl)oxy)methyl)-7-azabicyclo[2.2.1]heptan-7-yl)methanone], the Ki in assay [1] (rOX1 Ki (nm)) came to 1440 nM; in assay [2] (setting [4]), 6200 nM.
For the compound `COc1ccc(C(=O)N2C3CCC2C(Nc2ccc(C(F)(F)F)cn2)C3)c(-n2nccn2)c1` (racemic) [Example 191, (±)-(4-methoxy-2-(2H-1,2,3-triazol-2-yl)phenyl)(2-(5-(trifluoromethyl)pyridin-2-yl)amino)-7-azabicyclo[2.2.1]heptan-7-yl)methanone], the figures for the inhibition constant Ki in assay [1] (rOX1 Ki (nm)) and in assay [2] (setting [4]) were 257 nM and 8800 nM, respectively.
For `CCOc1ccc(C)nc1C(=O)N1C2CCC1C(Nc1ccc(C(F)(F)F)cn1)C2` (racemic) [Example 194, (±)-(3-ethoxy-6-methylpyridin-2-yl)(2-(5-(trifluoromethyl)pyridin-2-yl)amino)-7-azabicyclo[2.2.1]heptan-7-yl)methanone] the same measures were 450 nM and 800 nM.
As to `Cc1nc2sccn2c1C(=O)N1[C@@H]2CC[C@H]1[C@H](Nc1cnc(C(F)(F)F)cn1)C2` [Example 259, (6-methylimidazo[2,1-b]thiazol-5-yl)((1S,2R,4R)-2-((5-(trifluoromethyl)pyrazin-2-yl)amino)-7-azabicyclo[2.2.1]heptan-7-yl)methanone], the Ki in assay [1] (setting [3]) and in assay [2] (setting [4]) was > 10000 nM in each case.
`Cn1ncc(C(=O)N2C3CCC2C(COc2ccccn2)C3)c1-c1ccccc1` (racemic) [Example 84, (±)-(1-methyl-5-phenyl-1H-pyrazol-4-yl)(−2-((pyridin-2-yloxy)methyl)-7-azabicyclo[2.2.1]heptan-7-yl)methanone]: the results for the inhibitory constant (Ki) in assay [1] (setting [3]) and in assay [2] (setting [4]) were 2600 nM and 9700 nM, respectively.
For `CCOc1nc(C)ccc1C(=O)N1C2CCC1C(COc1ccccn1)C2` (racemic) [Example 158, (±)-(2-ethoxy-6-methylpyridin-3-yl)(2-((pyridin-2-yloxy)methyl)-7-azabicyclo[2.2.1]heptan-7-yl)methanone] the same measures were 2930 nM and 1780 nM.
For `Cc1ccn2ccnc2c1C(=O)N1C2CCC1C(COc1ccccn1)C2` (racemic) [Example 80, (±)-(7-methylimidazo[1,2-a]pyridin-8-yl)(2-((pyridin-2-yloxy)methyl)-7-azabicyclo[2.2.1]heptan-7-yl)methanone] the same measures were 1100 nM and > 10000 nM.
For `Cc1cccc(C(=O)N2[C@@H]3CC[C@H]2[C@H](Nc2cnc(C(F)(F)F)cn2)C3)c1-c1ncco1` [Example 266, (3-methyl-2-(oxazol-2-yl)phenyl)((1S,2R,4R)-2-((5-(trifluoromethyl)pyrazin-2-yl)amino)-7-azabicyclo[2.2.1]heptan-7-yl)methanone], in that order: 5 nM and 121 nM.
